Source: patent US20230011869A1 (Hoffmann-La Roche Inc., priority 2018, published 2023)
Structures can show the parent of a compound that is named as a salt. Where two headings read alike, the source gives them in different places.

Test system: Acinetobacter baumannii ATCC17978
Assay: Antimicrobial susceptibility testing: 90% growth inhibitory concentration (IC90) determination, Iso-Sensitest broth
Format: cell-based
Description: Antimicrobial Susceptibility Testing:
90% Growth Inhibitory Concentration (IC90) Determination
The in vitro antimicrobial activity of the compounds was determined according to the following procedure:
The assay used a 10-points Iso-Sensitest broth medium to measure quantitatively the in vitro activity of the compounds against Acinetobacter baumannii ATCC17978 and Acinetobacter baumannii ATCC17961.
Microtiter plates were incubated at 35±2° C.
Bacterial cell growth was determined with the measurement of optical density at λ=600 nm each 20 minutes over a time course of 16 h. Growth inhibition was calculated during the logarithmic growth of the bacterial cells with determination of the concentration inhibiting 50% (IC50) and 90% (IC90) of the growth.

[1] = 90% growth inhibitory concentration, Acinetobacter baumannii ATCC17978, Iso-Sensitest broth, OD 600 nm over 16 h, read-out: ATCC17978 IC90
[2] = Acinetobacter baumannii, ATCC17978, 16 h, read-out: ATCC17978 IC90, 90% growth inhibitory concentration, Acinetobacter baumannii ATCC17978, Iso-Sensitest broth, OD 600 nm over 16 h

IC90 [1] [nM] | Compound | IC90 [2] [nM]
190 | CO[C@@H]1CNC[C@H]1NC(=O)N1CCN(C(=O)c2ccc(Nc3nccn4c(-c5ccc(OC(F)F)cc5)cnc34)cc2C)CC1 (racemic) [Example 171, 4-[4-[[3-[4-(difluoromethoxy)phenyl]imidazo[1,2-a]pyrazin-8-yl]amino]-2-methyl-benzoyl]-N-[rac-(3R,4R)-4-methoxypyrrolidin-3-yl]piperazine-1-carboxamide hydrochloride] | 
290 | COc1ccc(-c2cnc3c(Nc4ccc(C(=O)N5CCN(C(=O)[C@H]6CCNC[C@H]6O)CC5)c(C)c4)nccn23)c(F)c1F (racemic) [Example 195, [4-[[3-(2,3-difluoro-4-methoxy-phenyl)imidazo[1,2-a]pyrazin-8-yl]amino]-2-methyl-phenyl]-[4-[rac-(3S,4S)-3-hydroxypiperidine-4-carbonyl]piperazin-1-yl]methanone] | 
180 | CCc1cc(Nc2nccn3c(-c4ccc(OCC#N)c(F)c4F)cnc23)ccc1C(=O)N1CCN(C(=O)[C@H]2CCNC[C@H]2O)CC1 (racemic) [Example 199, 2-[4-[8-[3-ethyl-4-[4-[rac-(3S,4S)-3-hydroxypiperidine-4-carbonyl]piperazine-1-carbonyl]anilino]imidazo[1,2-a]pyrazin-3-yl]-2,3-difluoro-phenoxy]acetonitrile formate] | 
 | Cc1cc(Nc2nccn3c(-c4ccc(OC(F)F)cc4)cnc23)ccc1C(=O)N1CCC(C(=O)N[C@@H]2C(O)O[C@H](CO)[C@@H](O)[C@@H]2O)CC1 (mixture of isomers) [Example 351, 1-[4-[[3-[4-(difluoromethoxy)phenyl]imi-dazo[1,2-a]pyrazin-8-yl]amino]-2-methylbenzoyl]-N-[rac-(3R,4S,5R,6S)-2,4,5-trihydroxy-6-(hydroxymethyl)oxan-3-yl]piperidine-4-carboxamide] | 720
 | Cc1cc(Nc2nccn3c(-c4ccc(OC(F)F)cc4)cnc23)ccc1C(=O)N1CCC(C(=O)N2C[C@H](O)[C@@H](O)C2)CC1 (racemic) [Example 415, [4-[[3-[4-(difluoromthoxy)phenyl]imi-dazo[1,2-a]pyrazin-8-yl]amino]-2-methylphenyl]-[4-[rac-(3R,4R)-3,4-dihydroxypyrrolidine-1-carbonyl]piperidin-1-yl]methanone] | 780
830 | Cc1cc(Nc2nccn3c(-c4ccc(OC(F)F)cc4)cnc23)ccc1C(=O)N1CC[C@@H](C(=O)N2CCNCC2)[C@H](O)C1 (racemic) [Example 438, [4-[[3-[4-(difluoromethoxy)phenyl]imi-dazo[1,2-a]pyrazin-8-yl]amino]-2-methylphenyl]-[rac-(3R,4S)-3-hydroxy-4-(piperazine-1-carbonyl)piperidin-1-yl]methanone; 2,2,2-trifluoroacetic acid] | 
 | CNCCNC(=O)[C@@H]1CCN(C(=O)c2ccc(Nc3nccn4c(-c5ccc(OC)c(F)c5)cnc34)cc2C)C[C@@H]1O (racemic) [Example 439, rac-(3R,4R)-1-[4-[[3-(3-fluoro-4-methoxyphenyl)imidazo[1,2-a]pyrazin-8-yl]amino]-2-methylbenzoyl]-3-hydroxy-N-[2-(methyl-amino)ethyl]piperidine-4-carboxamide; 2,2,2-trifluoroacetic acid] | 910
950 | COc1ccc(-c2cnc3c(Nc4ccc(C(=O)N5CC[C@@H](C(=O)N6CCNCC6)[C@H](O)C5)c(C)c4)nccn23)cc1F (racemic) [Example 440, [4-[[3-(3-fluoro-4-methoxyphenyl)imidazo[1,2-a]pyrazin-8-yl]amino]-2-methylphenyl]-[rac-(3R,4S)-3-hydroxy-4-(piperazine-1-carbonyl)piperidin-1-yl]methanone] | 
2200 | CNCCNC(=O)[C@@H]1CCN(C(=O)c2ccc(Nc3nccn4c(-c5ccc(OC)c(F)c5)cnc34)cc2C)C[C@H]1O (racemic) [Example 449, rac-(3R,4S)-1-[4-[[3-(3-fluoro-4-methoxyphenyl)imidazo[1,2-a]pyrazin-8-yl]amino]-2-methylbenozyl]-3-hydroxy-N-[2-(methylamino)ethyl]piperidin-4-carboxamide; 2,2,2-trifluoroacetic acid] | 
230 | Cc1cc(Nc2nccn3c(-c4ccc(OCC#N)c(F)c4F)cnc23)ccc1C(=O)N1CCN(C(=O)[C@@H]2CCNC[C@H]2O)CC1 (racemic) [Example 472, 2-[2,3-difluoro-4-[8-[3-methyl-4-[4-[rac-(3R,4S)-3-hydroxypiperidine-4-carbonyl]piperazine-1-carbonyl]anilino]imidazo[1,2-a]pyrazin-3-yl]phenoxy]acetonitrile; for-mic acid] | 
 | COc1ccc(-c2cnc3c(Nc4ccc(C(=O)N5CCN(C(=O)[C@H]6CCNC[C@@H]6O)CC5)c(C)c4)nccn23)c(F)c1F (racemic) [Example 489, [4-[[3-(2,3-difluoro-4-methoxyphenyl)imidazo[1,2-a]pyrazin-8-yl]amino]-2-methylphenyl]-[4-[rac-(3R,4S)-3-hydroxypiperidine-4-carbonyl]piperazin-1-yl]methanone; hydrochloride] | 270
 | CCc1cc(Nc2nccn3c(-c4ccc(OCC#N)c(F)c4F)cnc23)ccc1C(=O)N1CCN(C(=O)[C@H]2CCNC[C@@H]2O)CC1 (racemic) [Example 498, 2-[4-[8-[3-ethyl-4-[4-[rac-(3R,4S)-3-hydroxypiperidine-4-carbonyl]piperazine-1-carbonyl]anilino]imidazo[1,2-a]pyrazin-3-yl]-2,3-difluorophenoxy]acetonitrile; formic acid] | 330
630 | Cc1cc(Nc2nccn3c(-c4ccc(OC(F)F)cc4)cnc23)ccc1C(=O)N1CC[C@@H](C(=O)N2CCNCC2)[C@@H](O)C1 (racemic) [Example 530, [4-[[3-[4-(difluoromethoxy)phenyl]imi-dazo[1,2-a]pyrazin-8-yl]amino]-2-methylphenyl]-[rac-(3R,4R)-3-hydroxy-4-(piperazine-1-carbonyl)piperidin-1-yl]methanone; 2,2,2-trifluoroacetic acid] | 
2300 | COc1ccc(-c2cnc3c(Nc4ccc(C(=O)N5CCN(C(=O)C(CC(=O)O)NC(=O)[C@@H](N)CCCCN)CC5)c(C)c4)nccn23)c(F)c1F (mixture of isomers) [Example 534, 4-[4-[4-[[3-(2,3-difluoro-4-methoxyphenyl)imidazo[1,2-a]pyrazin-8-yl]amino]-2-methylbenzoyl]piperazin-1-yl]-4-oxo-3-[[rac-(2R)-2,6-diaminohexanoyl]amino]bu-tanoic acid; hydrochloride] | 
4100 | COc1ccc(-c2cnc3c(Nc4ccc(C(=O)N5CCN(C(=O)C(CCC(=O)O)NC(=O)[C@@H](N)CCCCN)CC5)c(C)c4)nccn23)c(F)c1F (mixture of isomers) [Example 536, 5-[4-[4-[[3-(2,3-difluoro-4-methoxyphenyl)imidazo[1,2-a]pyrazin-8-yl]amino]-2-methylbenzoyl]piperazin-1-yl]-5-oxo-4-[[rac-(2R)-2,6-diaminohexanoyl]amino]pen-tanoic acid; hydrochloride] | 
340 | CCc1cc(Nc2nccn3c(-c4ccc(OC)c(F)c4F)cnc23)ccc1C(=O)N1CCN(C(=O)[C@@H]2CCNC[C@@H]2O)CC1 (racemic) [Example 547, [4-[[3-(2,3-difluoro-4-methoxyphenyl)imidazo[1,2-a]pyrazin-8-yl]amino]-2-ethylphenyl]-[4-[rac-(3R,4R)-3-hydroxypiperidine-4-carbonyl]piperazin-1-yl]methanone; hydrochloride] | 
270 | Cc1cc(Nc2nccn3c(-c4ccc(OCC#N)c(F)c4F)cnc23)ccc1C(=O)N1CCN(C(=O)[C@@H]2CCNC[C@@H]2O)CC1 (relative stereo) [Example 196, 2-[2,3-difluoro-4-[8-[3-methyl-4-[4-[rac-(3R,4R)-3-hydroxypiperidine-4-carbonyl]piperazine-1-carbonyl]anilino]imidazo [1,2-a]pyrazin-3-yl]phenoxy] acetonitrile formate] | 
220 | COc1ccc(-c2cnc3c(Nc4ccc(C(=O)N5CCN(C(=O)[C@@H]6CCNC[C@@H]6O)CC5)c(C)c4)nccn23)c(Cl)c1F (relative stereo) [Example 218, [4-[[3-(2-chloro-3-fluoro-4-methoxy-phenyl)imidazo[1,2-a]pyrazin-8-yl]amino]-2-methyl-phenyl]-[4-[(3R,4R)-3-hydroxypiperidine-4-carbonyl]piperazin-1-yl]methanone] | 
1700 | Cc1cc(Nc2nccn3c(-c4ccc(OC(F)F)cc4)cnc23)ccc1C(=O)N1CCC(C(=O)O)CC1 [Example 1, 1-(4-((3-(4-(difluoromethoxy)phenyl)imidazo[1,2-a]pyrazin-8-yl)amino)-2-methylbenzoyl)piperidine-4-carboxylic acid] | 
1700 | COc1ccc(-c2cnc3c(Nc4ccc(C(=O)N5CCC(C(=O)O)CC5)c(C)c4)nccn23)cc1F [Example 2, 1-(4-((3-(3-fluoro-4-methoxyphenyl)imidazo[1,2-a]pyrazin-8-yl)amino)-2-methylbenzoyl)piperidine-4-carboxylic acid] | 
110 | Cc1cc(Nc2nccn3c(-c4ccc(OC(F)F)cc4)cnc23)ccc1C(=O)N1CCC(CCN)CC1 [Example 3, (4-(2-Aminoethyl)piperidin-1-yl)(4-((3-(4-(difluoromethoxy)phenyl)imidazo[1,2-a]pyrazin-8-yl)amino)-2-methylphenyl)methanone hydrochloride] | 

Compound | IC90 [1] [nM] | IC90 [2] [nM]
1-[4-[[3-[4-(cyanomethoxy)-2,3-difluoro-phenyl]imidazo[1,2-a]pyrazin-8-yl]amino]-2-methyl-benzoyl]-N-methylsulfonyl-piperidine-4-carboxamide trifluoroacetate [Example 100] | 1600 | 
